In US10822317B2, “Methods and compositions for wound healing” (QBiotics Limited, priority 2013, dated 2020):

What was measured:
[1] = system: human peripheral blood mononuclear cells (PBMCs); test: Cytokine production by PBMCs (Cytometric Bead Array); type: cell-based; conditions: 24 hr, ± standard deviation
From the text: Specific cytokines play critical roles in wound healing processes, and agents that modulate these substances may be useful in treating wounds and/or improving the cosmetic outcomes of healing (e.g. reduced scarring). The effects of Compounds 1, 2, 5 and 42 on regulation of four cytokines (IL-1β, IL-6, IL-8 and TNFα) known to be critical in early stages of the wound healing process were investigated in human peripheral blood mononuclear cells (PBMCs).
PBMCs were isolated by Ficoll-Paque sedimentation of heparinised blood acquired from both a person (Donor 1) and (Donor 2) human donor. All cells were cultured in 10% FCS, RPMI as detailed previously.
PBMCs were seeded at a density of 1.5×10^5 cells per well in 10% FCS, RPMI. Stimulation of these cells with the four compounds was performed at four concentrations (0 ng/mL, 3 ng/mL, 30 ng/mL, 300 ng/mL) in duplicate for 24 h in a humidified incubator at 37° C., 5% CO2. Media samples were taken from each of the required wells and frozen at −80° C. until use.
Cytometric Bead Array (CBA) assays were used to measure the results. CBA assays provide a method for capturing a soluble analyte or set of analytes using antibody coated beads of known sizes and fluorescence. Detection is then performed using another fluorescently labelled secondary antibody to form a sandwich complex. Each media sample was assayed for the presence of soluble […], IL-6, IL-8, IL-10, IL-12p70 and TNFα using a BD (Becton Dickinson) CBA Human Inflammatory Cytokine Detection Kit according to manufacturers' instructions. Mean fluorescence intensity values from each sample were compared against a standard curve to determine cytokine concentrations (pg/mL).

[2] = system: severe lacerated wound on the head; test: Veterinary case study 10, lacerated head wound of a spectacled flying fox; type: in vivo, Pteropus conspicillatus
Protocol: Seven dogs (Canis lupus familiaris) and one tree kangaroo (Dendrolagus humholzii) with chronic, non-healing wounds that were unresponsive to current veterinary standards-of-care for these indications were treated with Compound 1 by independent veterinarians. A second tree kangaroo and a spectacled flying fox (Pteropus conspicillatus) with wounds unsuited for initial treatment with current standards-of-care were also treated with Compound 1. All cases were managed as open wounds without the use of dressings or other bandaging during the course of treatment with Compound 1 and the subsequent period of wound resolution. Unless stated in individual case studies, no concomitant medications were used over the course of treatments with Compound 1.
Case notes: • The patient presented as a 4 month old flying fox with a deep penetrating wound on the head […] caused by entanglement in barbed wire. • In the opinion of the treating veterinarian who had extensive experience in wildlife injuries (including flying foxes) normal standard of care treatments were likely to be highly problematic in causing the right eye to lose shape and not be able to close, either due to excessive scar tissue formation associated with surgery or the extent of granulation required if wound healing dressings were applied. • Compound 1 was applied to the wound in 3 applications of 0.1 mL of 5 mg/mL gel formulation over a 28 day period (Days 1, 10 and 28). […] A very healthy granulation bed was present.

[3] = system: wounds following necrosis and sloughing of spontaneous tumours; test: Resolution of wounds after sloughing of spontaneous tumours treated by intratumoural injection, feline; type: in vivo
Protocol: Veterinary clinical data on speed of resolution of wounds that formed following necrosis and sloughing of spontaneous tumours that had been treated by intratumoural injection of Compound 1 (30% 1,2 propanediol formulation at either 0.5 or 1.0 mg/mL concentration) in twenty-four companion animals are summarised in Table 17.
Note that all wounds were managed as open wounds and no bandaging, dressings, lotions or concomitant medications were used in any of these cases.

Q: With CC=C(C)C(=O)OC1C(C)C2(O)C(C3OC3(CO)C(O)C3(O)C(=O)C(C)=CC32)C2C(C)(C)C12OC(=O)C(C)CC (stereo not shown) [Compound 1, 12-tigloyl-13-(2-methylbutanoyl)-6,7-epoxy-4,5,9,12,13,20-hexahydroxy-1-tigliaen-3-one] as the molecule, how does the IL-1β level ([1]; Donor 1, 3 ng/mL) read?
A: 1.2 ± 0.2 pg/mL

Q: What about the IL-6 level ([1]; Donor 1, 3 ng/mL) of the same molecule?
A: 9.7 ± 1.2 pg/mL

Q: What about the IL-8 level ([1]; Donor 1, 3 ng/mL) of the same molecule?
A: 1720 ± 157 pg/mL

Q: What about the TNFα level ([1]; Donor 1, 3 ng/mL) of the same molecule?
A: 24.3 ± 1.4 pg/mL

Q: What about the IL-1β level ([1]; Donor 1, 30 ng/mL) of the same molecule?
A: 11.9 ± 0.8 pg/mL

Q: And the IL-6 level ([1]; Donor 1, 30 ng/mL)?
A: 34.2 ± 1.1 pg/mL

Q: And the IL-8 level ([1]; Donor 1, 30 ng/mL)?
A: 16920 ± 1198 pg/mL

Q: What about the TNFα level ([1]; Donor 1, 30 ng/mL) of the same molecule?
A: 324.4 ± 0.0 pg/mL

Q: And the IL-1β level ([1]; Donor 1, 300 ng/mL)?
A: 39 ± 0.2 pg/mL

Q: What about the IL-6 level ([1]; Donor 1, 300 ng/mL) of the same molecule?
A: 89.5 ± 13.8 pg/mL

Q: And the IL-8 level ([1]; Donor 1, 300 ng/mL)?
A: 16419 ± 40 pg/mL

Q: And the TNFα level ([1]; Donor 1, 300 ng/mL)?
A: 355.0 ± 4.3 pg/mL

Q: And the IL-1β level ([1]; Donor 2, 3 ng/mL)?
A: 3.1 ± 0.9 pg/mL

Q: And the IL-6 level ([1]; Donor 2, 3 ng/mL)?
A: 8.3 ± 0.4 pg/mL

Q: What about the IL-8 level ([1]; Donor 2, 3 ng/mL) of the same molecule?
A: 1493 ± 2 pg/mL

Q: And the TNFα level ([1]; Donor 2, 3 ng/mL)?
A: 11.2 ± 0.3 pg/mL

Q: And the IL-1β level ([1]; Donor 2, 30 ng/mL)?
A: 43.9 ± 1.7 pg/mL

Q: And the IL-6 level ([1]; Donor 2, 30 ng/mL)?
A: 12.6 ± 0.9 pg/mL

Q: And the IL-8 level ([1]; Donor 2, 30 ng/mL)?
A: 24078 ± 815 pg/mL

Q: And the TNFα level ([1]; Donor 2, 30 ng/mL)?
A: 209.6 ± 7.5 pg/mL

Q: And the IL-1β level ([1]; Donor 2, 300 ng/mL)?
A: 121.6 ± 5.6 pg/mL

Q: And the IL-6 level ([1]; Donor 2, 300 ng/mL)?
A: 38.8 ± 9.0 pg/mL

Q: What about the IL-8 level ([1]; Donor 2, 300 ng/mL) of the same molecule?
A: 32021 ± 1156 pg/mL

Q: And the TNFα level ([1]; Donor 2, 300 ng/mL)?
A: 592.2 ± 24.7 pg/mL

Q: What about the wound status ([2]; Case 10, flying fox, head wound, 3 x 0.1 mL gel 5 mg/mL (Days 1, 10, 28), 14 days after the initial treatment) of the same molecule?
A: significant tissue infill and remodeling

Q: And the wound status ([2]; Case 10, 55 days after the initial treatment)?
A: good tissue infill over the entire area of the original wound

Q: And the eye function ([2]; Case 10, by 28 days)?
A: capable of fully closing

Q: What about the “No. of cats: Tissue deficit at wound site, Minor” value ([3]; 5 to 10% tissue deficit across the original wound area) of the same molecule?
A: 0

Q: And the “No. of cats: Tissue deficit at wound site, Nil or minimal” value ([3]; <5% tissue deficit across the original wound area)?
A: 3

Q: What about the “No. of cats: Tissue deficit at wound site, Substantial” value ([3]; >10% tissue deficit across the original wound area) of the same molecule?
A: 0

Q: And the “Average days from tumour slough to wound closure” value ([3]; Feline, wound size class 0.25 to 12 cm^2, 3 cases)?
A: 17 ± 10 days

Q: And the “No. of cats: Hair regrowth on wound area, Sparse” value ([3]; Hair covers <50% of original wound area)?
A: 0

Q: And the “No. of cats: Hair regrowth on wound area, Partial” value ([3]; Hair covers >50% of original wound area)?
A: 1

Q: What about the “No. of cats: Hair regrowth on wound area, Full” value ([3]; Hair covers >95% of original wound area) of the same molecule?
A: 2

Q: What about the “No. of cats: Scarring & skin thickening, Minor” value ([3]; Localised scar covering <10% of original wound area) of the same molecule?
A: 0

Q: What about the “No. of cats: Scarring & skin thickening, Substantial” value ([3]; Scarring covering >10% of original wound area) of the same molecule?
A: 0

Q: And the “No. of cats: Scarring & skin thickening, Nil or minimal” value ([3]; Scarring not obvious visually or by touch)?
A: 3

Q: And the “No. of cats: Change in hair colour, No” value ([3]; healed wound site)?
A: 2

Q: What about the “No. of cats: Change in hair colour, Yes” value ([3]; healed wound site) of the same molecule?
A: 1

Q: And the “No. of cats: Skin pigmentation, Hyperpigmentation” value ([3]; healed wound site)?
A: 0

Q: And the “No. of cats: Skin pigmentation, Hypopigmentation” value ([3]; healed wound site)?
A: 0

Q: What about the “No. of cats: Skin pigmentation, Normal” value ([3]; healed wound site) of the same molecule?
A: 3

Q: And the “No. of cats: Skin pigmentation, Patchy” value ([3]; healed wound site)?
A: 0

Q: How did the IL-1β level ([1]; Donor 1, 3 ng/mL) turn out when CCC(C)C(=O)OC1C(C)C2(O)C(C3OC3(CO)C(O)C3(O)C(=O)C(C)=CC32)C2C(C)(C)C12OC(=O)C(C)CC (stereo not shown) [Compound 2, 12,13-di-(2-methylbutanoyl)-6,7-epoxy-4,5,9,12,13,20-hexahydroxy-1-tigliaen-3-one] was run?
A: 1.4 ± 1.2 pg/mL

Q: What about the IL-6 level ([1]; Donor 1, 3 ng/mL) of the same molecule?
A: 9.1 ± 0.2 pg/mL

Q: What about the IL-8 level ([1]; Donor 1, 3 ng/mL) of the same molecule?
A: 2099 ± 585 pg/mL

Q: What about the TNFα level ([1]; Donor 1, 3 ng/mL) of the same molecule?
A: 31.15 ± 6.9 pg/mL

Q: And the IL-1β level ([1]; Donor 1, 30 ng/mL)?
A: 1.21 ± 0.4 pg/mL

Q: What about the IL-6 level ([1]; Donor 1, 30 ng/mL) of the same molecule?
A: 38 ± 3.9 pg/mL

Q: And the IL-8 level ([1]; Donor 1, 30 ng/mL)?
A: 18229 ± 2592 pg/mL

Q: And the TNFα level ([1]; Donor 1, 30 ng/mL)?
A: 314.07 ± 37.9 pg/mL

Q: What about the IL-1β level ([1]; Donor 1, 300 ng/mL) of the same molecule?
A: 37.7 ± 4.6 pg/mL

Q: What about the IL-6 level ([1]; Donor 1, 300 ng/mL) of the same molecule?
A: 84.1 ± 3.6 pg/mL

Q: And the IL-8 level ([1]; Donor 1, 300 ng/mL)?
A: 16634 ± 625 pg/mL

Q: And the TNFα level ([1]; Donor 1, 300 ng/mL)?
A: 330.0 ± 28.7 pg/mL

Q: And the IL-1β level ([1]; Donor 2, 3 ng/mL)?
A: 6.7 ± 1.5 pg/mL

Q: And the IL-6 level ([1]; Donor 2, 3 ng/mL)?
A: 14.9 ± 1.1 pg/mL

Q: And the IL-8 level ([1]; Donor 2, 3 ng/mL)?
A: 2608 ± 309 pg/mL

Q: What about the TNFα level ([1]; Donor 2, 3 ng/mL) of the same molecule?
A: 27.3 ± 8.3 pg/mL

Q: What about the IL-1β level ([1]; Donor 2, 30 ng/mL) of the same molecule?
A: 52.6 ± 5.0 pg/mL

Q: And the IL-6 level ([1]; Donor 2, 30 ng/mL)?
A: 14.5 ± 3.3 pg/mL

Q: What about the IL-8 level ([1]; Donor 2, 30 ng/mL) of the same molecule?
A: 26401 ± 271 pg/mL

Q: What about the TNFα level ([1]; Donor 2, 30 ng/mL) of the same molecule?
A: 211.5 ± 12.4 pg/mL

Q: And the IL-1β level ([1]; Donor 2, 300 ng/mL)?
A: 123.9 ± 1.0 pg/mL

Q: What about the IL-6 level ([1]; Donor 2, 300 ng/mL) of the same molecule?
A: 41.4 ± 2.3 pg/mL

Q: And the IL-8 level ([1]; Donor 2, 300 ng/mL)?
A: 34117 ± 630 pg/mL

Q: What about the TNFα level ([1]; Donor 2, 300 ng/mL) of the same molecule?
A: 618.1 ± 63.7 pg/mL
